# What was measured:
# [1] = target: Ba/F3_KRAS^G12D cells (Homo sapiens, UniProt P01116, G12D, cells depend on it); experiment: Ba/F3 KRAS G12D cell proliferation assay (CellTiter-Glo); type: cell-based; conditions: treated for 3 days, cell-titer Glo, cell growth inhibition, read-out: BaF3_KRAS^G12D IC50
# Description: Ba/F3_KRAS^G12D cells (KYinno, China) were generated by transducing Ba/F3 parental cells with the recombinant KRAS^G12D lentivirus and followed by 1 ug/mL of puromycin selection and IL3 depletion. […] Cells were seeded at a density of 5×10^3 per well into 96-well plate and incubated overnight. Serial diluted compounds were added to each well. Cells were treated with the compounds for 3 days, after which cell-titer Glo reagent (Promega #G7572) was used to assess cell proliferation. The luminescence signal was then collected on Tecan Spark plate reader. […] Cell growth inhibition of IC50 is calculated with the equation of Y=Bottom+(Top−Bottom)/(1+10^((Log IC50−X)*Hill Slope))
# [2] = target: recombinant human KRAS^G12D protein (Homo sapiens, UniProt P01116, G12D); experiment: Temperature-dependent Fluorescence (TdF) KRAS G12D protein binding assay; conditions: 6 μM KRAS^G12D protein, 10 μM compound, Sypro Orange; Kd calculated from the fluorescent shift
# Description: The Temperature-dependent Fluorescence (TdF) assay was used to analyze binding affinity of compound to recombinant human KRAS^G12D protein. The TdF assay was conducted in the 96-well-based real-time fluorescence plate reader (ABI 7500 or Roche LightCycler 480). Fluorescent dye Sypro Orange (Sigma) was used to monitor the protein folding-unfolding transition. Protein-compound binding was gauged by the shift in the unfolding transition temperature (ΔTm) acquired with and without compound. Each reaction sample consists of 6 μM KRAS^G12D Protein, 10 μM compound, and Sypro Orange dye (in 1% DMSO) in 20 μL reaction buffer (25 mM HEPES pH 7.5, 150 mM NaCl, 10 mM MgCl2). […] Binding affinity (Kd value) was calculated based on the degree of fluorescent shift of the protein with and without compound.
# Sequence of Ba/F3_KRAS^G12D cells (P01116 whole entry G12D): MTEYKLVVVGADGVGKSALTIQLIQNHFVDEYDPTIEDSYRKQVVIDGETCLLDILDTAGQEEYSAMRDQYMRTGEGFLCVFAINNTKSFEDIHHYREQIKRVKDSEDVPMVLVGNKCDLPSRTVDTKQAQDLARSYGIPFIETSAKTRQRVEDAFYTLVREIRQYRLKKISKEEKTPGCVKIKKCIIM
# Sequence of recombinant human KRAS^G12D protein (P01116 1-188 isoform P01116-2 G12D): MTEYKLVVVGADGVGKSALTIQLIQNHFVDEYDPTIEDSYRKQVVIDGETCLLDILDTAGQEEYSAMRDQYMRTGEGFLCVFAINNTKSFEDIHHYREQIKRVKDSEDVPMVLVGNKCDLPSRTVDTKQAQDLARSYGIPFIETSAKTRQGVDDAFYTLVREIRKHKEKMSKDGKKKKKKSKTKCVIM
Compound,GI50 [1],Kd [2]
CN1CCC2CCN(c3nc(N4CC5CCC(C4)N5)c4cc(Cl)c(-c5cc(O)cc6ccccc56)c(F)c4n3)CC21 (stereo not shown) [Compound 42],0.5 to 5 µM,> 5 µM
CN1CCC[C@H]1COc1nc(N2CC3(CNC3)C2)c2cc(Cl)c(-c3cc(O)cc4cccc(Cl)c34)c(F)c2n1 [Compound 17],> 5 µM,> 5 µM
Cc1cccc2cccc(-c3c(C#N)cc4c(N5CC6CCC(C5)N6)nc(OC[C@@]56CCCN5C[C@H](F)C6)nc4c3F)c12 [Compound 87],0.5 to 5 µM,0.5 to 5 µM
Cc1cccc2[nH]nc(-c3c(Cl)cc4c(N5CC6CCC(C5)N6)nc(OC[C@@H]5CCCN5C)nc4c3F)c12 [Compound 75],0.5 to 5 µM,> 5 µM
"Oc1cc(-c2c(Cl)cc3c(N4CC5CCC(C4)N5)nc(OC[C@@]45CCCN4C[C@H](F)C5)nc3c2F)c2c(Cl)c(F)ccc2c1 (single isomer, unassigned) [Compound 138]",< 0.5 µM,< 0.5 µM
Cc1cccc2cccc(-c3c(Cl)cc4c(N5CC6CCC(C5)N6)nc(OC[C@@]56CCCN5C[C@H](F)C6)nc4c3F)c12 [Compound 131],0.5 to 5 µM,< 0.5 µM
CN1CC2(CCN(c3nc(N4CC5CCC(C4)N5)c4cc(Cl)c(-c5cc(O)cc6ccccc56)c(F)c4n3)CC2)C1 [Compound 45],0.5 to 5 µM,> 5 µM
Fc1c(-c2cccc3cccc(Cl)c23)c(Cl)cc2c(N3CCNCC3)nc(OCC34CCCN3CCC4)nc12 [Compound 28],< 0.5 µM,> 5 µM
N#Cc1cc2c(N3CC4CCC(C3)N4)nc(OC[C@@]34CCCN3C[C@H](F)C4)nc2c(F)c1-c1cc(O)cc2ccccc12 [Compound 86],< 0.5 µM,< 0.5 µM
Oc1cc(-c2c(Cl)cc3c(N4CC5CCC(C4)N5)nc(OCCN4CCOCC4)nc3c2F)c2ccccc2c1 [Compound 59],0.5 to 5 µM,> 5 µM
CN1CCC[C@H]1COc1nc(N2CCNCC23CC3)c2cc(Cl)c(-c3cc(O)cc4cccc(Cl)c34)c(F)c2n1 [Compound 23],0.5 to 5 µM,0.5 to 5 µM
CN1C[C@H](F)C[C@H]1COc1nc(N2CC3CCC(C2)N3)c2cc(Cl)c(-c3cc(O)cc4ccccc34)c(F)c2n1 [Compound 76],0.5 to 5 µM,< 0.5 µM
CN(C)C1CCCN(c2nc(N3CC4CCC(C3)N4)c3cc(Cl)c(-c4cc(O)cc5ccccc45)c(F)c3n2)C1 (stereo not shown) [Compound 56],0.5 to 5 µM,> 5 µM
CN1CCC2(CC1)CCN(c1nc(N3CC4CCC(C3)N4)c3cc(Cl)c(-c4cc(O)cc5ccccc45)c(F)c3n1)C2 [Compound 41],0.5 to 5 µM,> 5 µM
Nc1nc2c(-c3c(Cl)cc4c(N5CC6CCC(C5)N6)nc(OC[C@@]56CCCN5C[C@H](F)C6)nc4c3F)cc(C(F)(F)F)cc2s1 [Compound 132],0.5 to 5 µM,< 0.5 µM
"CCc1cccc2cc(O)cc(-c3c(Cl)cc4c(N5CC6CCC(C5)N6)nc(OC[C@@]56CCCN5C[C@H](F)C6)nc4c3F)c12 (single isomer, unassigned) [Compound 133]",< 0.5 µM,< 0.5 µM
CN1CC2CN(c3nc(N4CC5CCC(C4)N5)c4cc(Cl)c(-c5cc(O)cc6ccccc56)c(F)c4n3)CC2C1 (stereo not shown) [Compound 40],0.5 to 5 µM,> 5 µM
"Oc1cc(-c2c(Cl)cc3c(N4CC5CCC(C4)N5)nc(OC[C@@]45CCCN4C[C@H](F)C5)nc3c2F)c2c(Cl)cccc2c1 (single isomer, unassigned) [Compound 104]",0.5 to 5 µM,> 5 µM
C[C@H]1CNCCN1c1nc(OC[C@@H]2CCCN2C)nc2c(F)c(-c3cc(O)cc4cccc(Cl)c34)c(Cl)cc12 [Compound 22],0.5 to 5 µM,> 5 µM
CN1CCC[C@H]1COc1nc(N2C[C@H]3NCC[C@H]32)c2cc(Cl)c(-c3cc(O)cc4cccc(Cl)c34)c(F)c2n1 [Compound 25],0.5 to 5 µM,> 5 µM
Fc1c(-c2cccc3cccc(Cl)c23)c(Cl)cc2c(N3C4CCC3CNC4)nc(OCC34CCCN3CCC4)nc12 [Compound 72],0.5 to 5 µM,0.5 to 5 µM
Oc1cc(-c2c(Cl)cc3c(N4CC5CCC(C4)N5)nc(OCC45CCCN4CCC5)nc3c2F)c2ccccc2c1 [Compound 85],< 0.5 µM,< 0.5 µM
CN1C[C@H](O)C[C@H]1COc1nc(N2CC3CCC(C2)N3)c2cc(Cl)c(-c3cc(O)cc4ccccc34)c(F)c2n1 [Compound 80],> 5 µM,< 0.5 µM
CN1CCC2(CCN(c3nc(N4CC5CCC(C4)N5)c4cc(Cl)c(-c5cc(O)cc6ccccc56)c(F)c4n3)C2)C1 (stereo not shown) [Compound 44],0.5 to 5 µM,> 5 µM

Compound,GI50 [1],Kd [2]
Cc1cccc2cc(F)cc(-c3c(Cl)cc4c(N5CC6CCC(C5)N6)nc(OC[C@@]56CCCN5C[C@H](F)C6)nc4c3F)c12 [Compound 137],0.5 to 5 µM,< 0.5 µM
"CCc1cccc2cc(O)cc(-c3c(Cl)cc4c(N5CC6CCC(C5)N6)nc(OC[C@@]56CCCN5C[C@H](F)C6)nc4c3F)c12 (single isomer, unassigned) [Compound 134]",0.5 to 5 µM,> 5 µM
Oc1cc(-c2c(Cl)cc3c(N4CC5CCC(C4)N5)nc(OC[C@@]45CCCN4C[C@H](F)C5)nc3c2F)c2c(Cl)cccc2c1 [Compound 58],< 0.5 µM,< 0.5 µM
CN1CCC[C@H]1COc1nc(N2CC3CCC(C2)N3)c2cc(Cl)c(-c3cc(O)cc4ccccc34)c(F)c2n1 [Compound 2],0.5 to 5 µM,< 0.5 µM
COc1nc(N2CC3CCC(C2)N3)c2cc(Cl)c(-c3nc(N)cc(C)c3C(F)(F)F)c(F)c2n1 [Compound 144],0.5 to 5 µM,> 5 µM
Cc1cc(N)nc(-c2c(Cl)cc3c(N4CC5CCC(C4)N5)nc(OC[C@@]45CCCN4C[C@H](F)C5)nc3c2F)c1C(F)(F)F [Compound 142],< 0.5 µM,< 0.5 µM
CN(C)CCCOc1nc(N2CC3CCC(C2)N3)c2cc(Cl)c(-c3c(O)cccc3F)c(F)c2n1 [Compound 8],> 5 µM,> 5 µM
CC(C)N1CC(Nc2nc(N3C[C@@H](C)NC[C@@H]3C)c3cc(Cl)c(-c4cc(O)cc5ccccc45)c(F)c3n2)C1 [Compound 49],> 5 µM,> 5 µM
CN(C)C1CN(c2nc(N3CC4CCC(C3)N4)c3cc(Cl)c(-c4cc(O)cc5ccccc45)c(F)c3n2)C1 [Compound 39],0.5 to 5 µM,> 5 µM
"Cc1cccc2cc(O)cc(-c3c(Cl)cc4c(N5CC6CCC(C5)N6)nc(OC[C@@]56CCCN5C[C@H](F)C6)nc4c3F)c12 (single isomer, unassigned) [Compound 118]",< 0.5 µM,< 0.5 µM
CN1CCC[C@H]1COc1nc(N2CC3CCC(C2)N3)c2cc(Cl)c(-c3cccc4cccc(Cl)c34)c(F)c2n1 [Compound 7],0.5 to 5 µM,> 5 µM
Cc1cc(N)nc(-c2c(Cl)cc3c(N4CC5CCC(C4)N5)nc(OC[C@@H]4CCCN4C)nc3c2F)c1 [Compound 130],> 5 µM,> 5 µM
"N#Cc1cc2c(N3CC4CCC(C3)N4)nc(OC[C@@]34CCCN3C[C@H](F)C4)nc2c(F)c1-c1cc(O)cc2cccc(Cl)c12 (single isomer, unassigned) [Compound 120]",< 0.5 µM,< 0.5 µM
Oc1cc(-c2c(Cl)cc3c(N4CC5CCC(C4)N5)nc(OCC45CCCN4CC(F)(F)C5)nc3c2F)c2c(Cl)cccc2c1 (stereo not shown) [Compound 65],0.5 to 5 µM,< 0.5 µM
CN1CCC[C@H]1COc1nc(N2CCNC(CC(N)=O)C2)c2cc(Cl)c(-c3cc(O)cc4ccccc34)c(F)c2n1 (stereo partly shown) [Compound 12],> 5 µM,> 5 µM
CN1CCC[C@H]1COc1nc(N2CC3CCCC(C2)N3)c2cc(Cl)c(-c3cc(O)cc4cccc(Cl)c34)c(F)c2n1 [Compound 11],0.5 to 5 µM,0.5 to 5 µM
CN1CCC[C@H]1COc1nc(N2CCC3NCC32)c2cc(Cl)c(-c3cc(O)cc4cccc(Cl)c34)c(F)c2n1 (stereo partly shown) [Compound 18],0.5 to 5 µM,> 5 µM
CN(C)CCCOc1nc(N2CC3CCC(C2)N3)c2cc(Cl)c(-c3cccc4cccc(Cl)c34)c(F)c2n1 [Compound 6],0.5 to 5 µM,> 5 µM
Nc1cccc(F)c1-c1c(Cl)cc2c(N3C4CCC3CNC4)nc(OCC34CCCN3CCC4)nc2c1F [Compound 66],> 5 µM,> 5 µM
CN(C)C1CCN(c2nc(N3CC4CCC(C3)N4)c3cc(Cl)c(-c4cc(O)cc5ccccc45)c(F)c3n2)CC1 [Compound 54],0.5 to 5 µM,> 5 µM
CN1CCC[C@H]1COc1nc(N2CC3CCC(C2)N3)c2cc(Cl)c(-c3nc(N)cc4ccccc34)c(F)c2n1 [Compound 27],0.5 to 5 µM,> 5 µM
CN1CCC[C@H]1COc1nc(N2CCNCC2)c2cc(Cl)c(-c3cc(O)cc4ccccc34)c(F)c2n1 [Compound 1],0.5 to 5 µM,> 5 µM
N#Cc1cc2c(N3CC4CCC(C3)N4)nc(OC[C@@]34CCCN3C[C@H](F)C4)nc2c(F)c1-c1cc(O)cc2cccc(Cl)c12 [Compound 55],< 0.5 µM,< 0.5 µM
